Experimental data reported in US20260223850A1, “SUBSTITUTED PYRROLIDONE COMPOUND, PREPARATION METHOD THEREFOR, COMPOSITION AND APPLICATION THEREOF” (QINGDAO KINGAGROOT CHEMICAL COMPOUND CO., LTD., priority 2023, published 2026).

Experiments:
Assay type in all cases: in vivo
[1] = tested on: Huaidao (rice cultivar); assay: Seedling stage sealing experiment for water-seeding (crop safety); conditions: 120 g a.i./ha, 15 days, fresh weight control rate; for Huaidao (rice cultivar) plant damage level (growth control rate): spray, seedling stage sealing for water-seeding; for Huaidao (rice cultivar) plant damage level: seedling stage sealing
Summary of the method: (§1)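 Read-out: 0–9 damage level from fresh-weight control rate (9 = completely dead, 1 = under 10%, 0 = no effect), averaged over triplicates, taken 15 days after spraying. Doses were 120, 60, 30 and 15 g a.i./ha, acetone/water solution, spray tower.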

[2] = tested on: Echinochloa crusgalli; assay: Seedling stage sealing experiment for water-seeding; conditions: 120 g a.i./ha, 15 days, fresh weight control rate
[3] = tested on: Digitaria sanguinalis; assay: as above; conditions: 120 g a.i./ha, 15 days, fresh weight control rate
Summary of the method: as §1

[4] = tested on: Echinochloa phyllopogon; assay: as above; conditions: 120 g a.i./ha, 15 days, fresh weight control rate
Summary of the method: as §1

[5] = spray, seedling stage sealing for water-seeding

Row | Structure (SMILES) | Huaidao (rice cultivar) plant damage level (growth control rate) [1] | Echinochloa crusgalli activity level (growth control rate) [2, 5] | Digitaria sanguinalis activity level (growth control rate) [3, 5] | Echinochloa phyllopogon activity level (growth control rate) [4, 5] | Huaidao (rice cultivar) plant damage level [1] | Echinochloa crusgalli activity level (growth control rate) ([2]; seedling stage sealing) | Digitaria sanguinalis activity level (growth control rate) ([3]; seedling stage sealing) | Echinochloa phyllopogon activity level (growth control rate) ([4]; seedling stage sealing)
1 | Cc1cc(C)cc([C@H]2CN(C)C(=O)[C@@H]2C(=O)Nc2cnn(C)c2[S+](C)[O-])c1 (stereo partly shown) [552′] | 0 | 9 | 9 |  |  |  |  | 
2 | Cc1cc(C)cc([C@H]2CN(C)C(=O)[C@@H]2C(=O)Nc2cnn(C(C)C)c2C(F)(F)F)c1 [547′] | 0 | 9 | 9 | 9 |  |  |  | 
3 | CCn1ncc(NC(=O)[C@H]2C(=O)N(C)C[C@@H]2c2cccc(C)c2)c1F [523′] | 0 | 9 | 9 | 6 (Level 6: growth control rate greater than or equal to 70% and less than 80%) |  |  |  | 
4 | CN1C[C@H](c2cc(F)cc(Cl)c2)[C@@H](C(=O)Nc2cnn(C)c2C2CC2)C1=O [555′] | 0 | 9 | 9 | 9 |  |  |  | 
5 | CO/N=C/c1c(NC(=O)[C@H]2C(=O)N(C)C[C@@H]2c2cccc(C)c2)cnn1C [532′] | 0 | 9 | 9 | 6 (Level 6: growth control rate greater than or equal to 70% and less than 80%) |  |  |  | 
6 | Cc1cc(C)cc([C@H]2CN(C)C(=O)[C@@H]2C(=O)Nc2cnn(C3CC3)c2C(F)(F)F)c1 [548′] | 0 | 9 | 9 | 6 (Level 6: growth control rate greater than or equal to 70% and less than 80%) |  |  |  | 
7 | CN1CC(c2cccc(C(F)(F)F)c2)C(C(=O)Nc2cnn(C)c2Br)C1=O (stereo not shown) [Compound 120] |  |  |  |  | 0 | 9 | 9 | 9
8 | CN1C[C@H](c2cccc(C(F)(F)F)c2)[C@@H](C(=O)Nc2cnn(C)c2C(F)(F)F)C1=O [538′] |  | 9 | 9 | 9 |  |  |  | 
9 | CN1C[C@H](c2cc(F)cc(C(F)F)c2)[C@@H](C(=O)Nc2cnn(C)c2Cl)C1=O [556′] | 2 (Level 2: growth control rate greater than or equal to 10% and less than 20%) | 9 | 9 | 9 |  |  |  | 
10 | CC(C)Oc1cccc(C2CN(C)C(=O)C2C(=O)Nc2cnn(C)c2Cl)c1 (stereo not shown) [Compound 29] |  |  |  |  | 0 | 9 | 9 | 9
11 | Cc1cccc([C@H]2CN(C)C(=O)[C@@H]2C(=O)Nc2cnn(C)c2C(F)F)c1 [524′] | 2 (Level 2: growth control rate greater than or equal to 10% and less than 20%) | 9 | 9 | 9 |  |  |  | 
12 | COCc1c(NC(=O)[C@H]2C(=O)N(C)C[C@@H]2c2cc(C)cc(C)c2)cnn1C [553′] | 2 (Level 2: growth control rate greater than or equal to 10% and less than 20%) | 9 | 9 |  |  |  |  | 
13 | CN1CC(c2cccc(C(F)(F)F)c2)C(C(=O)Nc2cnn(C)c2F)C1=O (stereo not shown) [Compound 119] |  |  |  |  | 0 | 9 | 9 | 9
14 | Cc1cccc([C@H]2CN(C)C(=O)[C@@H]2C(=O)Nc2cnn(C(C)C)c2C(F)(F)F)c1 [526′] | 0 | 9 | 9 | 6 (Level 6: growth control rate greater than or equal to 70% and less than 80%) |  |  |  | 
15 | CCn1ncc(NC(=O)[C@H]2C(=O)N(C)C[C@@H]2c2cccc(C(F)(F)F)c2)c1F [533′] | 0 | 9 | 9 | 9 |  |  |  | 
16 | C=CCOc1cccc(C2CN(C)C(=O)C2C(=O)Nc2cnn(C)c2Cl)c1 (stereo not shown) [Compound 30] |  |  |  |  |  | 9 | 9 | 9

Row | Structure (SMILES) | Huaidao (rice cultivar) plant damage level (growth control rate) [1] | Echinochloa crusgalli activity level (growth control rate) [2, 5] | Digitaria sanguinalis activity level (growth control rate) [3, 5] | Echinochloa phyllopogon activity level (growth control rate) [4, 5] | Huaidao (rice cultivar) plant damage level [1] | Echinochloa crusgalli activity level (growth control rate) ([2]; seedling stage sealing) | Digitaria sanguinalis activity level (growth control rate) ([3]; seedling stage sealing) | Echinochloa phyllopogon activity level (growth control rate) ([4]; seedling stage sealing)
17 | CCn1ncc(NC(=O)[C@H]2C(=O)N(C)C[C@@H]2c2cccc(C(F)(F)F)c2)c1C(F)(F)F [535′] | 0 | 9 | 9 | 9 |  |  |  | 
18 | COc1cccc(C2CN(C)C(=O)C2C(=O)Nc2cnn(C)c2Cl)c1 (stereo not shown) [Compound 28] |  |  |  |  | 0 | 9 | 9 | 9
19 | CN1CC(c2cccc(C(F)(F)F)c2)C(C(=O)Nc2cnn(C(F)F)c2)C1=O (stereo not shown) [Compound 159] |  |  |  |  |  | 7 (Level 7: growth control rate greater than or equal to 80% and less than 90%) | 9 | 6 (Level 6: growth control rate greater than or equal to 70% and less than 80%)
20 | CCn1cc(NC(=O)C2C(=O)N(C)CC2c2cccc(C(F)(F)F)c2)cn1 (stereo not shown) [Compound 456] | 0 | 7 (Level 7: growth control rate greater than or equal to 80% and less than 90%) | 9 |  |  |  |  | 
21 | CN1CC(c2cccc(C(F)(F)F)c2)C(C(=O)Nc2cn(C)nc2C(F)F)C1=O (stereo not shown) [Compound 457] | 0 |  | 9 |  |  |  |  | 
22 | CCn1ncc(NC(=O)[C@H]2C(=O)N(C)C[C@@H]2c2cccc(C)c2)c1C(F)(F)F [525′] | 2 (Level 2: growth control rate greater than or equal to 10% and less than 20%) | 9 | 9 | 9 |  |  |  | 
23 | Cc1cc(C)cc([C@H]2CN(C)C(=O)[C@@H]2C(=O)Nc2cnn(C)c2C(F)F)c1 [546′] | 0 | 9 | 9 | 9 |  |  |  | 
24 | Cc1cc([C@H]2CN(C)C(=O)[C@@H]2C(=O)Nc2cnn(C)c2C2CC2)cc(C(F)(F)F)c1 [561′] | 1 (Level 1: growth control rate less than 10%) | 9 | 9 | 9 |  |  |  | 
25 | CN1CC(c2ccc(F)c(F)c2)C(C(=O)Nc2cnn(C)c2Cl)C1=O (stereo not shown) [Compound 116] |  |  |  |  |  | 7 (Level 7: growth control rate greater than or equal to 80% and less than 90%) | 9 | 6 (Level 6: growth control rate greater than or equal to 70% and less than 80%)
26 | CN1CC(c2cccc(F)c2)C(C(=O)Nc2cnn(C)c2Cl)C1=O (stereo not shown) [Compound 15] |  |  |  |  |  | 9 | 9 | 6 (Level 6: growth control rate greater than or equal to 70% and less than 80%)
27 | CN1C[C@H](c2cccc(C(F)(F)F)c2)[C@@H](C(=O)Nc2cnn(C)c2[S+](C)[O-])C1=O (stereo partly shown) [539′] | 0 | 9 | 6 (Level 6: growth control rate greater than or equal to 70% and less than 80%) |  |  |  |  | 
28 | CN1CC(c2ccc(C(F)(F)F)cc2)C(C(=O)Nc2cnn(C)c2Cl)C1=O (stereo not shown) [Compound 249] |  |  |  |  |  | 8 (Level 8: growth control rate greater than or equal to 90% and less than 100%) | 9 | 8 (Level 8: growth control rate greater than or equal to 90% and less than 100%)
29 | CN1C[C@H](c2cc(Br)cc(C(F)(F)F)c2)[C@@H](C(=O)Nc2cnn(C(F)F)c2Cl)C1=O [557′] |  | 9 | 9 | 6 (Level 6: growth control rate greater than or equal to 70% and less than 80%) |  |  |  | 
30 | CN1CC(c2cccc(C(F)(F)F)c2)C(C(=O)Nc2cnn(C)c2Cl)C1=O (stereo not shown) [Compound 1] |  |  |  |  |  | 9 | 9 | 9
31 | CN1CC(c2ccc(C(F)(F)F)cc2)C(C(=O)Nc2c[nH]nc2Cl)C1=O (stereo not shown) [Control compound A, reference compound] |  | 0 | 0 | 0 |  |  |  | 
32 | CCc1c(NC(=O)[C@H]2C(=O)N(C)C[C@@H]2c2cc(C)cc(C)c2)cnn1C(F)F [544′] |  | 9 | 9 | 9 |  |  |  | 
